# Test results: US12428430B2 (BRISTOL-MYERS SQUIBB COMPANY, priority 2018, dated 2025)
# What was measured:
# hLPA1 [1] = molecular target: T1, hLPA1 (Homo sapiens, UniProt Q92633); test: LPA1 functional antagonist assay (LPA-induced calcium flux in CHO cells overexpressing human LPA1); assay type: cell-based; set-up: expressed in transfected cells; host or cells: Chinese hamster ovary (CHO) cells; conditions: antagonist mode, inhibition of calcium flux induced by 10 nM LPA, read-out: hLPA1 IC50
# Description: The effectiveness of compounds of the present invention as LPA1 inhibitors can be determined in an LPA1 functional antagonist assay as follows:
# Chinese hamster ovary cells overexpressing human LPA1 were plated overnight (15,000 cells/well) in poly-D-lysine coated 384-well microplates (Greiner bio-one, Cat #781946) in DMEM/F12 medium (Gibco, Cat #11039). Following overnight culture, cells were loaded with calcium indicator dye (AAT Bioquest Inc, Cat #34601) for 30 minutes at 37° C. The cells were then equilibrated to room temperature for 30 minutes before the assay. Test compounds solubilized in DMSO were transferred to 384 well non-binding surface plates (Corning, Cat #3575) using the Labcyte Echo acoustic dispense and diluted with assay buffer [1×HBSS with calcium/magnesium (Gibco Cat #14025-092), 20 mM HEPES (Gibco Cat #15630-080) and 0.1% fatty acid free BSA (Sigma Cat #A9205)] to a final concentration of 0.5% DMSO. Diluted compounds were added to the cells by FDSS6000 (Hamamatsu) at final concentrations ranging from 0.08 nM to 5 μM. and were then incubated for 20 min at room temperature at which time LPA (Avanti Polar Lipids Cat #857130C) was added at final concentrations of 10 nM to stimulate the cells. The compound IC50 value was defined as the concentration of test compound which inhibited 50% of the calcium flux induced by LPA alone. IC50 values were determined by fitting data to a 4-parameter logistic equation (GraphPad Prism, San Diego Calif.).
# hLPA1 [2] = molecular target: T1, hLPA1; test: hLPA1 Binding
# nerve-injured mice = conditions: pretreatment; cited from earlier work
# [3] = tested on: mouse epithelial renal cell line, MCT; conditions: co-treatment with LPA, MCT cells; cited from earlier work
# [4] = tested on: human foetal lung fibroblasts; conditions: Tager et al. Nature Medicine 2008; cited from earlier work
# UUO mice = conditions: compared with LPA1 (−/−) mice; cited from earlier work
# [5] = tested on: pancreatic cancer cell lines; conditions: cited from earlier work
# T1 sequence (Q92633 whole entry): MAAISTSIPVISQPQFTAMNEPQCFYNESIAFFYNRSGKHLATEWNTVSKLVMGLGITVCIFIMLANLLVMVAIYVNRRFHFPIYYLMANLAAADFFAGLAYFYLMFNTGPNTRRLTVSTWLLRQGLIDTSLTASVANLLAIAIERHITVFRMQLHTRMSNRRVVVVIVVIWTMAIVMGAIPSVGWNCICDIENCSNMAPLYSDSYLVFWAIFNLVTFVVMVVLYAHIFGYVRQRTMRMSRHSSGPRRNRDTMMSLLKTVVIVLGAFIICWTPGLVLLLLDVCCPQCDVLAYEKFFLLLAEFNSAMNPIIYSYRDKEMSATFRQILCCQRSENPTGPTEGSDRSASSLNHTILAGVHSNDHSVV
SMILES,IC50 (hLPA1 [1]),also measured
"Cc1noc(-c2ccc(C34CCC(CC(=O)O)(CC3)CO4)c(F)c2)c1NC(=O)O[C@H](C)c1ccccc1 [Example 50, 2-(1-(2-fluoro-4-(3-methyl-4-((((R)-1-phenylethoxy)carbonyl)amino)isoxazol-5-yl)phenyl)-2-oxabicyclo[2.2.2]octan-4-yl)acetic acid]",57 nM,
"Cc1noc(-c2ccc(C34CCC(CC(=O)O)(CC3)CO4)c(F)c2)c1NC(=O)O[C@H](C)C1CC1 [Example 51, 2-(1-(4-(4-((((R)-1-cyclopropylethoxy)carbonyl)amino)-3-methylisoxazol-5-yl)-2-fluorophenyl)-2-oxabicyclo[2.2.2]octan-4-yl)acetic acid]",222 nM,
"Cc1noc(-c2ccc(C34CCC(CC(=O)O)(CC3)CO4)cc2)c1COC(=O)N(C)C1CCCC1 [Example 53, 2-(1-(4-(4-(((cyclopentyl(methyl)carbamoyl)oxy)methyl)-3-methylisoxazol-5-yl)phenyl)-2-oxabicyclo[2.2.2]octan-4-yl)acetic acid]",2550 nM,
"Cc1noc(C23CCC(c4ccc(CC(=O)O)cc4)(CC2)OC3)c1NC(=O)O[C@H](C)C1CC1 [Example 55, (R)-2-(4-(4-(4-(((1-cyclopropyl-ethoxy)carbonyl)amino)-3-methyl-isoxazol-5-yl)-2-oxabicyclo[2.2.2]octan-1-yl)phenyl)acetic acid]",,Ki (hLPA1 [2]): 724 nM
"Cc1noc(-c2ccc(C34CCC(CCC(=O)O)(CC3)CO4)cc2)c1NC(=O)O[C@H](C)c1ccccc1 [Example 58, 3-(1-(4-(3-methyl-4-((((R)-1-phenylethoxy)carbonyl)amino)isoxazol-5-yl)phenyl)-2-oxabicyclo[2.2.2]octan-4-yl)propanoic acid]",157 nM,
"Cc1noc(-c2cccc(C34CCC(CC(=O)O)(CC3)OC4)c2)c1NC(=O)O[C@H](C)c1ccccc1Cl [Example 59, 2-(4-(3-(4-((((R)-1-(2-chlorophenyl)ethoxy)carbonyl)amino)-3-methylisoxazol-5-yl)phenyl)-2-oxabicyclo[2.2.2]octan-1-yl)acetic acid]",95 nM,
C[C@@H](N)[C@H]1CC[C@H](C(=O)Nc2ccncc2)CC1 [Example Y-27632],,allodynia and hyperalgesia (nerve-injured mice): completely abolished
Cc1noc(-c2ccc(CSCCC(=O)O)cc2)c1NC(=O)OC(C)c1ccccc1Cl (centres unmarked) [Ki16425],,"LPA-induced expression of the profibrotic cytokine CTGF [3]: almost completely suppressed; chemotaxis of human foetal lung fibroblasts induced by BAL from IPF patients [4]: blocked; development of renal fibrosis in UUO mice (UUO mice): closely resembled the profile of LPA1 (−/−) mice; in vitro migration in response to LPA and ascites from pancreatic cancer patients ([5]; Yamada et al, J. Biol. Chem. 2004): effectively blocked; LPA-induced and ascites-induced invasion activity ([5]; highly peritoneal metastatic pancreatic cancer cell line): blocked"

# Second part, led by results:
IC50 (hLPA1 [1]),SMILES,also measured
303 nM,"Cc1ccccc1[C@@H](C)OC(=O)Nc1c(C)noc1-c1ccc(C23CCC(CC(=O)O)(CC2)CO3)cc1 [Example 49, 2-(1-(4-(3-methyl-4-((((R)-1-(o-tolyl)ethoxy)carbonyl)amino)isoxazol-5-yl)phenyl)-2-oxabicyclo[2.2.2]octan-4-yl)acetic acid]",
134 nM,"Cc1noc(-c2ccc(C34CCC(CC(=O)O)(CC3)CO4)cc2)c1NC(=O)O[C@H](C)c1ccccc1F [Example 52, 2-(1-(4-(4-((((R)-1-(2-fluorophenyl)ethoxy)carbonyl)amino)-3-methyl-isoxazol-5-yl)phenyl)-2-oxabicyclo[2.2.2]octan-4-yl)acetic acid]",
88 nM,"Cc1noc(C23CCC(c4ccc(CC(=O)O)cc4)(CC2)OC3)c1NC(=O)O[C@H](C)c1ccccc1 [Example 54, (R)-2-(4-(4-(3-methyl-4-(((1-phenylethoxy)carbonyl)amino)isoxazol-5-yl)-2-oxabicyclo[2.2.2]octan-1-yl)phenyl)acetic acid]",
93 nM,"Cc1noc(C23CCC(c4ccc(CC(=O)O)cc4)(CC2)OC3)c1NC(=O)O[C@H](C)c1ccccc1Cl [Example 56, (R)-2-(4-(4-(4-(((1-(2-chlorophenyl)ethoxy)carbonyl)amino)-3-methyl-isoxazol-5-yl)-2-oxabicyclo[2.2.2]octan-1-yl)phenyl)acetic acid]",
41 nM,"Cc1noc(-c2ccc(C34CCC(CC(=O)O)(CC3)OC4)c(F)c2)c1NC(=O)O[C@H](C)c1ccccc1 [Example 57, 2-(4-(2-fluoro-4-(3-methyl-4-((((R)-1-phenylethoxy)carbonyl)amino)isoxazol-5-yl)phenyl)-2-oxabicyclo[2.2.2]octan-1-yl)acetic acid]",
